pIC50: −log10 of the molar value. Counter-ions that a name gives are not always drawn. Like-named read-outs stand apart in the source and are kept apart here.
Experiments:
CoA-IT = assay: Assay (b): microsomal CoA-IT activity assay; type: biochemical, human; settings: U937 microsomes
Description: The following is a method to measure CoA-IT activity and the effects of compounds on CoA-IT activity. The assay is based upon mixing cellular material containing CoA-IT activity with a stable lyso phospholipid such as […] and measuring the production of phospholipid product such as […] occurring in the absence of added CoA or CoA-fatty acids.
Any inflammatory cell that contains high levels of CoA-IT activity can be used, such as neutrophils, macrophages or cell lines such as U937 cells. […] Cells were grown without differentiation (basal state) by any agent, such as dimethyl sulfoxide. As used herein, "inflammatory cells" include, but are not limited to neutrophils, macrophages, monocytes, lymphocytes, eosinophils, basophils, and mast cells.
Microsomes were prepared using standard techniques. In this case, cells were washed with a buffer of 250 mM sucrose, 10 mM Tris, 1 mM EGTA, 1 mM MgCl2, pH 7.4 and ruptured by N2 cavitation (750 psi, 10 minutes). The ruptured cells were centrifuged 1000×g, 5 minutes. The resulting supernatant was centrifuged at 20,000×g,~20 minutes. Microsomes were prepared from this supernatant by centrifugation at 100,000×g, 60 minutes. The resulting pellet was washed once with assay buffer (150 mM NaCl, 10 mM Na2 KPO4, 1 mM EGTA, pH 7.4), recentrifuged and the pellet resuspended in assay buffer (4-20 mg protein/ml) and was stored at -80° C. until assayed.
CoA-IT activity was measured in 1.5 ml centrifuge tubes in a total volume of 100 ul. Microsomes were diluted in assay buffer to the desired protein concentration (6-20 ug/tube). The reaction was initiated by addition of [3H ]1-alkyl-2-lyso-sn-glycero-3-phosphocholine (GPC) (~0.1 uCi/tube) and 1 μM final cold 1-alkyl-2-lyso-GPC in assay buffer with 0.25 mg/ml fatty acid-poor bovine serumalbumin (BSA) (Calbiochem, La Jolla, Calif.). [3H]1-2-alkyl-2-lyso-GPC, approximately 50 Ci/mmol, was from NEN-Dupont (Boston, Mass.) and cold 1-alkyl-2-lyso-GPC was from Biomol (Plymouth Meeting, Pa). Microsomes were pretreated with desired agents for the desired time (10 minutes) before the addition of [3H]1-alkyl-2-lyso-GPC. The reaction was run for the desired time (10 minutes) at 37° C. The reaction was stopped and the lipids extracted by addition of 100 ul of chloroform:methanol (1:2, v/v) followed by 100 ul of chloroform and 100 ul of 1M KCI. The samples were vortexed and centrifuged at high speed in a microfuge for 2-3 minutes. An aliquot of the chloroform-extracted materials were separated, usually by TLC in chloroform/methanol/acetic acid/water (50:25:8:4, v/v), visualized by radioscanning (Bioscan) and the product, [3H] 1-alkyl-2-acyl-GPC, was scraped and quantified by liquid scintillation spectroscopy. […] Other methods can be used to separate substrate from product, including but not limited to column chromatography, affinity chromatography and post reaction derivitization.

[1] = tested on: TPA-induced Mouse Ear Inflammation; assay: Assay (g): TPA-induced Mouse Ear Inflammation (edema and MPO); type: in vivo; settings: for TPA % change in edema / change in MPO for TPA model / MPO ED50 / edema ED50: topical; for TPA % change in edema / change in MPO for TPA model: doses of 0.2, 0.1 and 0.3 for dexamethasone, scalaradial, WY 50,295 respectively; for MPO ED50 / edema ED50: TPA ear model
Method: (§1) Male Balb/c inbred mice were obtained from Charle River Breeding Laboratories (Kingston, N.Y.). Within a single experiment mice (22-25 g) were age-matched. These in vivo experiments typically involved use of 5-6 animals/group.
TPA (12-0-tetradecanoylphorbol 13-acetate) (Sigma Chemical Company) in acetone (4 mg/20 ml) was applied to the inner and outer surfaces of the left ear of BALB/c male mice. The thickness of both ears was then measured with a dial micrometer (Mitutoyo, Japan) at both 2 and 4 hours after treatment, and the data expressed as the change in thickness (10^-3 cm) between treated and untreated ears. […] After measuring the edema, the inflammed left ears were removed and stored at -70° C. until they were assayed for MPO (myeloperoxidase) activity where appropriate.
On the day of the assay, partially thawed ear tissues were minced and then homogenized (10% w/v) with a Tissumizer homogenizer (Tekmar Co.) in 50 mM phosphate buffer (pH 6) containing 0.5% HTAB. The tissue homogenates were taken through three cycles of freeze-thaw, followed by brief sonication (10 sec). The method of Bradley et al. was used with modifications as described. […] Supernatant MPO activity was quantified kinetically (change in absorbance measured over 3 min, sampled at 15-sec intervals) using a Beckman DU-7 spectrophotometer and a Kinetics Analysis package (Beckman Instruments, Inc.). One unit of MPO activity is defined as that degrading one micromole of peroxide per minute at 25° C.
Statistical analysis was done using Student's "t" test.

[2] = tested on: Arachidonic acid induced ear inflammation; assay: Assay (h): Arachidonic acid induced ear inflammation assay; type: in vivo, mouse; settings: for AA % change in edema / change in MPO for AA: topical, doses of 0.2, 0.1 and 0.3 for dexamethasone, scalaradial, WY 50,295 respectively; for activity in the AA ear model: @ 1 mg
Method: as §1
Arachidonic acid is dissolved in acetone ([…]) to the left ear of BALB/c male mice. The thickness of both ears was measured with a constant pressure thickness guage 1 hour after treatment and the data expressed as the change in thickness between treated and untreated ears. Test compounds or vehicle are given at the time of AA applciation. The inflammatory cell infiltration is measured by MPO activity as described above in the TPA ear edema assay. After the edema measurements are made, the inflamed ears are removed and assayed for MPO activity.

human Monocytes = assay: Assay (f): stimulated eicosanoid release by human monocytes; type: cell-based; settings: Monocyte
Method: Human Monocyte Isolation. Leukocyte-rich leukopaks obtained from Biological Specialties (Lansdale, Pa.) were collected from male volunteers who were not talking antiinflammatory drugs. Leukopaks were centrifuged (90×g for 15 min) twice to remove the platelet-rich plasma. The cell pellet was washed by centrifugation and resuspended in HBSS without Ca^2+ or Mg^2+. Histopaque 1077 was layered under the cell suspension and centrifuged at 400×g for 30 min to obtain the buffy coat. The interfacial buffy coat, containing monocytes and lymphocytes, was removed and saved. The buffy coat was washed twice with HBSS without Ca^2+ or Mg^2+ by centrifugation. […]
Measurement of Stimuli-Induced Eicosanoid Release. […] (A23187, 1 μM,(15 min). The reaction was terminated by reduction of pH through addition of citric acid and centrifugation (10 min, 400×g, 4° C.). Cell viability was monitored before and after experiments using trypan blue exclusion. The cell-free media was decanted and stored at -70° C. until analyzed. Prostaglandin E2 and LTC4 were directly measured in cell-free media using enzyme immunoassay (EIA) kits purchased from Caymen Chemical Co. (Ann Arbor, Mich.). Sample or standard dilutions were made with appropriate media and analyzed in triplicate. Results were obtained by extrapolation from a standard curve prepared in the media and expressed as pg or ng/ml of sample.

With `COc1cccc2c1cc([N+](=O)[O-])c1c(C(=O)O)cc3c(c12)OCO3` [aristolochic acid] the “effect on CoA-IT activity” value (CoA-IT; at concentrations up to 500 μM) was “no effect”.

`O=S1(=O)CCn2c1nc(-c1ccc(F)cc1)c2-c1ccncc1` [6-(4'-Fluorophenyl)-5-(4-pyridyl)2,3-dihydroimidzo-[2,1-b]thiazole-dioxide] was tested, and the “effect on CoA-IT activity” value (CoA-IT; at concentrations up to 100 μM) was “no effect”.

With `COc1ccc2cc([C@H](C)C(=O)O)ccc2c1` [naproxen] the “effect on CoA-IT activity” value (CoA-IT; at concentrations up to 100 μM) was “no effect”.

`COc1ccc2c(c1)c(CC(=O)O)c(C)n2C(=O)c1ccc(Cl)cc1` [indomethicin] was tested, and the “effect on CoA-IT activity” value (CoA-IT; at concentrations up to 100 μM) was “no effect”.

In the case of `CC(=O)O[C@H]1C[C@@H]2[C@@]3(C)CCCC(C)(C)[C@@H]3CC[C@@]2(C)[C@@H]2CC=C(C=O)[C@H](C=O)[C@@]12C` [scalaradial], the “TPA % change in edema” value [1] was -46%, the “change in MPO for TPA model” value [1] was -65 and the “AA % change in edema” value [2] was -11%. The “change in MPO for AA” value [2] was -33.

`CCN(CC)CCCC(C)Nc1c2ccc(Cl)cc2nc2ccc(OC)cc12` (centres unmarked) [quinacrine] was tested, and the “effect on CoA-IT activity” value (CoA-IT; at concentrations up to 500 μM) was “no effect”.

In the case of `CCC(C)(C)c1ccc(Oc2ccc(C(F)(F)F)cc2NC(=O)Nc2cc(C(F)(F)F)cc(C(F)(F)F)c2)c(S(=O)(=O)O)c1` [Example 2, 2-[2-[3-[3,5-Bis(trifluoromethyl)phenyl]ureido]-4-trifluoromethylphenoxy]5-(1,1-dimethylpropyl)benzenesulfonic acid, sodium salt], the pIC50 (human Monocytes; LTC4 release, A23187, read-out: LTC4 (as an IC50)) was 6.00, the pIC50 (human Monocytes; PGE2 release, A23187, read-out: PGE2 (as an IC50)) was under 5.00 and the “MPO ED50” value [1] was 0.25 mg/ear. For the same molecule, the “edema ED50” value [1] was 0.87 mg/ear, the “inhibition in these animal models” value ([1]; mouse ear inflammation models (TPA and AA)) was “positive inhibition” and the “activity in the AA ear model” value [2] was -25.

`Fc1ccc(-c2nc3n(c2-c2ccncc2)CCS3)cc1` [6-(4'-Fluorophenyl)-5-(4pyridyl)-2,3-dihydroimidzo-[2,1-b]thiazole] was tested, and the “effect on CoA-IT activity” value (CoA-IT; at concentrations up to 100 μM) was “no effect”.

`CC(C(=O)O)c1ccc2cc(OCc3ccc4ccccc4n3)ccc2c1` (centres unmarked) [WY 50,295] was tested, and the “TPA % change in edema” value [1] was -18%, the “change in MPO for TPA model” value [1] was -36 and the “AA % change in edema” value [2] was -50%. The “change in MPO for AA” value [2] was -90.

In the case of `Cc1cc(C(C)(C)C)c(O)c(C(C)(C)C)c1` [BHT], the “effect on CoA-IT activity” value (CoA-IT; at concentrations up to 100 μM) was “no effect”.

In the case of `C[C@@H]1C[C@H]2[C@@H]3CCC4=CC(=O)C=C[C@]4(C)[C@@]3(F)[C@@H](O)C[C@]2(C)[C@@]1(O)C(=O)CO` [dexamethasone], the “TPA % change in edema” value [1] was -50%, the “change in MPO for TPA model” value [1] was -54 and the “AA % change in edema” value [2] was -10%. The “change in MPO for AA” value [2] was 0.

With `CCC(C)(C)c1ccc(Oc2ccc(C(F)(F)F)cc2NC(=O)Nc2ccc(Cl)c(C(F)(F)F)c2)c(S(=O)(=O)O)c1` [Example 3, 2-[2-[3-(4-Chloro-3-trifluoromethylphenyl)ureido]-4-trifluoromethylphenoxy]-5-(1,1-dimethylpropyl)benzenesulfonic acid, sodium salt] the “MPO ED50” value [1] was 0.36 mg/ear, the “edema ED50” value [1] was 0.32 mg/ear and the “activity in the AA ear model” value [2] was -22.

For `CN(C)CCC=C1c2ccccc2COc2ccccc21` [Doxepine], the “effect on CoA-IT activity” value (CoA-IT; at concentrations up to 100 μM) was “did not inhibit”.
